Assay results: US8163684B2, “Antimicrobials having polyquaternary ammoniums and alcohol-bearing amidoamines and methods for their use” (Abbott Medical Optics Inc., priority 2008, dated 2012)

What was measured:
C. albicans = assay: log drop in 6 hours in lens case with PureVision lens, C. albicans; assay type: cell-based, Candida albicans
Source text: (§1) Approximately three (3) mL of each solution was introduced into a lens case containing a PureVision® soft contact lens. Each contact lens was maintained in this solution at room temperature for about six (6) hours. The amidoamine used was ricinoleamidopropyl dimethylamine (RAPD), an amidoamine with an alcohol group. Table 1 below provides the ingredients of the contact lens care solutions tested as well as the activity of the various solutions against Candida and Fusarium after six hours.
(§2) To test the biocidal efficacy of a solution comprising the synergistic combination of a polyquaternary ammonium compound and an amidoamine having an alcohol group, four (4) solutions were prepared by blending together the components provided in Table 4. Approximately three (3) mL of three of the solutions was placed into a test tube with A. polyphaga. When utilized, the amidoamine was RAPD and the polyquaternary ammonium compound was polyquaternium-1. Table 4 below provides the ingredients of the contact lens care solutions tested as well as the activity of the solutions against Acanthamoeba polyphaga after six hours.

F. solani = assay: log drop in 6 hours in lens case with PureVision lens, F. solani; assay type: cell-based; conditions: for log drop in 6 hours in lens case with PureVision lens, F. solani: sole antimicrobial, Table 1 solution, room temperature
Source text: as §1

S. marcescens [1] = assay: log drop at contact time of 6 hours in test tube without lenses, S. marcescens; assay type: cell-based
Method: To test the biocidal efficacy of other solutions comprising the synergistic combination of a polyquaternary ammonium compound and an amidoamine having an alcohol group, three (3) solutions were prepared by blending together the components provided in Table 2. Approximately three (3) mL was placed into a test tube with S. marcescens. When utilized, the amidoamine was RAPD and the polyquaternary ammonium compound was polyquaternium-1. Table 2 below provides the ingredients of the contact lens care solutions tested as well as the activity of the solutions against S. marcescens after six hours. Further testing was performed to test the biocidal efficacy of other solutions comprising the synergistic combination of a polyquaternary ammonium compound and an amidoamine having an alcohol group. Approximately three (3) mL was placed into a test tube with S. marcescens. When utilized, the amidoamine was RAPD and the polyquaternary ammonium compound was polyquaternium-1. Table 3 below provides the ingredients of the contact lens care solutions tested as well as the activity of the solutions against S. marcescens after six hours.

S. marcescens [2] = assay: log drop at contact time of 6 hours in lens case with PureVision lens, S. marcescens; assay type: cell-based; conditions: Table 2 solution
Method: To test the biocidal efficacy of other solutions comprising the synergistic combination of a polyquaternary ammonium compound and an amidoamine having an alcohol group, three (3) solutions were prepared by blending together the components provided in Table 2. […] When utilized, the amidoamine was RAPD and the polyquaternary ammonium compound was polyquaternium-1. Table 2 below provides the ingredients of the contact lens care solutions tested as well as the activity of the solutions against S. marcescens after six hours.

Acanthamoeba polyphaga = assay: log drop in 6 hours in test tube, Acanthamoeba polyphaga; assay type: cell-based
Method: as §2, with “hours. To test the biocidal efficacy of other solutions comprising the synergistic combination of a polyquaternary ammonium compound and an amidoamine having an alcohol group, three (3) solutions were prepared by blending together the components provided in Table 5. Approximately three (3) mL of two of the solutions was placed into a test tube with A. polyphaga. When utilized, the amidoamine was RAPD and the polyquaternary ammonium compound was polyquaternium-1. Table 5 below provides the ingredients of the contact lens care solutions tested as well as the activity of the solutions against A. polyphaga after six hours.” for “hours.”

[3] = test system: trophzoite and cyst-type Acanthamoeba; conditions: stated as known; cited from earlier work
Fusarium = conditions: stated as known; cited from earlier work
[4] = RAPD 0.0005 % w/w, no CPC, no PQ-1, Table 4 solution
[5] = RAPD as the sole antimicrobial agent, Table 1 solutions

## CCCCCC[C@@H](O)C/C=C\CCCCCCCC(=O)NCCCN(C)C [RAPD, ricinoleamidopropyl dimethylamine]
C. albicans; RAPD 0.0002 % w/w, sole antimicrobial, Table 1 solution, room temperature
  log drop in 6 hours in lens case with PureVision lens, C. albicans: 0.26 log
C. albicans; [4]
  log drop in 6 hours in lens case with PureVision lens, C. albicans: <0.28 log
C. albicans; RAPD 0.0005 % w/w, sole antimicrobial, Table 1 solution, room temperature
  log drop in 6 hours in lens case with PureVision lens, C. albicans: 0.33 log
C. albicans; RAPD 0.001 % w/w, sole antimicrobial, Table 1 solution, room temperature
  log drop in 6 hours in lens case with PureVision lens, C. albicans: 0.21 log
C. albicans; [5]
  biocidal activity against Candida (in words): very low biocidal activity
F. solani; RAPD 0.0002 % w/w
  log drop in 6 hours in lens case with PureVision lens, F. solani: 0.48 log
F. solani; RAPD 0.0005 % w/w
  log drop in 6 hours in lens case with PureVision lens, F. solani: 0.37 log
F. solani; RAPD 0.001 % w/w
  log drop in 6 hours in lens case with PureVision lens, F. solani: 0.35 log
F. solani; [5]
  biocidal activity against Fusarium (in words): very low biocidal activity
S. marcescens [1]; RAPD 0.0005 % w/w, no PQ-1, Table 3 solution
  log drop at contact time of 6 hours in test tube without lenses, S. marcescens: 0.44 log
S. marcescens [1]; RAPD 0.001 % w/w, no PQ-1, Table 3 solution
  log drop at contact time of 6 hours in test tube without lenses, S. marcescens: 1.51 log
S. marcescens [1]; RAPD 0.002 % w/w, no PQ-1, Table 2 solution
  log drop at contact time of 6 hours in test tube without lenses, S. marcescens: 1.77 log
S. marcescens [2]; RAPD 0.002 % w/w, no PQ-1
  log drop at contact time of 6 hours in lens case with PureVision lens, S. marcescens: 0.91 log
Acanthamoeba polyphaga; [4]
  log drop in 6 hours in test tube, Acanthamoeba polyphaga: 0.18 log
Acanthamoeba polyphaga; RAPD 0.002 % w/w, no PQ-1, no CPC, Table 5 solution
  log drop in 6 hours in test tube, A. polyphaga: 1.90 log

## CCCCC(CC)CNC(=N)NC(=N)NCCCCCCNC(=N)NC(=N)NCC(CC)CCCC (stereo not shown) [alexidine]
[3]
  biocidal activity against trophzoite and cyst-type Acanthamoeba (in words): very biocidal
Fusarium
  biocidal activity against Fusarium (in words): not very biocidal

## poly[(dimethyliminio)-2-butene-1,4-diylchloride (1:1)], a-[4-[tris(2-hydroxyethyl)ammonio]-2-buten-1-yl]-w-[tris(2-hydroxyethyl)ammonio]-chloride [PQ-1]
S. marcescens [1]; PQ-1 0.001 % w/w, no RAPD, citrate/borate solution of Tables 2 and 3
  log drop at contact time of 6 hours in test tube without lenses, S. marcescens: 1.53 log
S. marcescens [2]; PQ-1 0.001 % w/w, no RAPD
  log drop at contact time of 6 hours in lens case with PureVision lens, S. marcescens: 1.07 log
